For eleven compounds, DC50 results are on record in patent US20260295053A1, “COMPOUNDS FOR DEGRADATION AND INHIBITION OF KRAS (G12D) PROTEIN” (Shenzhen Ionova Life Science Co., Ltd., priority 2023, published 2026).

Broadly, the DC50 is the concentration giving 50% degradation. The low end stands for a more potent degrader, the high end for a less potent degrader.

T1 sequence (P01116 1-188 isoform P01116-2 G12D): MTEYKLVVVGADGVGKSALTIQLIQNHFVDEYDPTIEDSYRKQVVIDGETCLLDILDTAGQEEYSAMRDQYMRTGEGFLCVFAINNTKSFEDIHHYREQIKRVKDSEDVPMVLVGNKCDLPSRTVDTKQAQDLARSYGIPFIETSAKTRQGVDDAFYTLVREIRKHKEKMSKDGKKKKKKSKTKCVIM

The experiment addresses T1, KRAS (G12D) (Homo sapiens, UniProt P01116, G12D).
T1 construct: in-cell western with KRAS G12D antibody after 24 h
In words: KRAS (G12D) cellular degradation assay in AsPC-1 cells. The format is cell-based. The following applies: 24 hours, antibody fluorescence (Odyssey CLX), DC50 half-maximal degradation concentration. The method, then:
ASPC-1 and PK-59 cellular assays ASPC-1 (ATCC cat. CRL-1682) and PK-59 (Nanjing Cobioer, Cat. No. CBP61184) were used in KRAS cellular degradation, pERK inhibition and proliferation assays. The two cell lines were maintained following vendor's instructions. For monitoring KRAS (G12D) cellular degradation and pERK biomarker inhibition, cells were seeded into a 96-well plate with 22,000 and 16,000 cells/well for assays in ASPC-1 and PK-59, respectively. Cells were incubated at 37° C. with 5% CO2 and cell density was monitored until ^~90% confluency was reached. Compounds were serially diluted at a 1:3 ratio and dispensed into each well at final concentrations ranging from […] to 1.5 nM. After incubation for 24 hours, the culture media were removed and the cells were subjected to fixation, permeabilization and blocking (Intercept blocking buffer, Li-cor). For KRAS (G12D) degradation, the cells were treated with primary antibody (KRAS G12D antibody, Cell Signaling Technologies, Cat. No. CST14429) and for β-actin (β-actin mAb, Beyotime, Cat. No. AF-5001), and followed by secondary antibodies, Anti-rabbit IgG (H+L) (DyLight™ 800 4×PEG Conjugate) or IRDye® 680RD Goat anti-Mouse IgG. For pERK inhibition assay, cells were treated with primary antibodies for pERK (Phospho-p44/42 MAPK (Erk1/2) (Thr202/Tyr204) (D13.14.4E) XP® Rabbit mAb, Cell Signaling Technologies, Cat. No. CST-4370) and β-actin (β-actin mAb, Beyotime, Cat. No. AF-5001), and followed by secondary antibodies, Anti-rabbit IgG (H+L) (DyLight™ 800 4×PEG Conjugate) or IRDye® 680RD Goat anti-Mouse IgG. Fluorescence signals were read on Odyssey CLX instrument. For cell proliferation assays, cells were seeded into a 96-well plate at 3,500 and 800 cells/well for assays in ASPC-1 and PK-59, respectively. Cells were incubated at 37° C. with 5% CO2 for overnight. Compounds were serially diluted at a 1:3 ratio and dispensed into each well at final concentrations ranging from […] to 1.5 nM. After incubation for 6 days, cell viability reagent (CellTiter Glo, Promega, Cat. No. G7573) was added to each well and luminescence was recorded on Molecular Devices Spectramax iD3 instrument. IC50, half-maximal inhibitory concentration for pERK inhibition or cell proliferation, and DC50, half-maximal degradation concentration in KRAS (G12D) cellular degradation were determined by fitting the corresponding dose response curves using GraphPad Prism software.
Wherein “A” means the value <10 nM, “B” means 10 nM<the value <100 nM, “C” means 100 nM<the value <1000 nM, and “D” means the value >1000 nM, in which, the value means the value of DC50 or IC50. NT means not tested.
In turn, `CO[C@@H](C)COc1nc(N2CCCNCC2)c2cc(C3CC3)c(-c3c(C)c(F)cc4[nH]ncc34)c(OCc3ccc(-c4cn([C@H](C(=O)N5C[C@H](O)C[C@H]5C(=O)N[C@@H](CO)c5ccc(-c6scnc6C)c6c5CC6)C(C)C)nn4)cc3)c2n1` [Example 219, (2S,4R)-1-((2S)-2-(4-(4-(((6-cyclopropyl-4-(1,4-diazepan-1-yl)-7-(6-fluoro-5-methyl-1H-indazol-4-yl)-2-((S)-2-methoxypropoxy)quinazolin-8-yl)oxy)methyl)phenyl)-1H-1,2,3-triazol-1-yl)-3-methylbutanoyl)-4-hydroxy-N—((R)-2-hydroxy-1-(5-(4-methylthiazol-5-yl)bicyclo[4.2.0]octa-1(6),2,4-trien-2-yl)ethyl)pyrrolidine-2-carboxamide] displayed a half-maximal degradation concentration (DC50) of under 10 nM. The value for `Cc1ncsc1-c1ccc([C@H](CO)NC(=O)[C@@H]2C[C@@H](O)CN2C(=O)[C@H](C(C)C)n2cc(-c3ccc(COc4c(-c5c(C)c(F)cc6[nH]ncc56)c(C5CC5)cc5c(N6C[C@H]7C[C@@H]6CN7)nc(OC6CCOCC6)nc45)cc3)nn2)cc1` (single isomer, unassigned) [Example 5B] was over 1000 nM; that for `CCn1nccc1-c1ccc([C@H](CO)NC(=O)[C@@H]2C[C@@H](O)CN2C(=O)[C@H](C(C)C)n2cc(-c3ccc(COc4c(-c5c(C)c(F)cc6[nH]ncc56)c(C5CC5)cc5c(N6CCC(NC(C)=O)CC6)nc(OC[C@H](C)OC)nc45)cc3)nn2)cc1` [Example 226, (2S,4R)-1-((2S)-2-(4-(4-(((4-(4-acetamidopiperidin-1-yl)-6-cyclopropyl-7-(6-fluoro-5-methyl-1H-indazol-4-yl)-2-((S)-2-methoxypropoxy)quinazolin-8-yl)oxy)methyl)phenyl)-1H-1,2,3-triazol-1-yl)-3-methylbutanoyl)-N—((R)-1-(4-(1-ethyl-1H-pyrazol-5-yl)phenyl)-2-hydroxyethyl)-4-hydroxypyrrolidine-2-carboxamide] was 10 to 100 nM.

The compound `CCn1ncc2c(C#C[C@H](CO)NC(=O)[C@@H]3C[C@@H](O)CN3C(=O)[C@H](C(C)C)n3cc(-c4ccc(COc5c(-c6c(C)c(F)cc7[nH]ncc67)c(C6CC6)cc6c(N7C[C@@H]8C[C@H]7CN8)nc(O[C@H]7C[C@@H](OC)C7)nc56)cc4)nn3)cccc21` [Example 163, (2S,4R)-1-((2S)-2-(4-(4-(((4-((1S,4S)-2,5-diazabicyclo[2.2.1]heptan-2-yl)-6-cyclopropyl-2-((1r,3R)-3-methoxycyclobutoxy)-7-(6-fluoro-5-methyl-1H-indazol-4-yl)quinazolin-8-yl)oxy)methyl)phenyl)-1H-1,2,3-triazol-1-yl)-3-methylbutanoyl)-N—((R)-4-(1-ethyl-1H-indazol-4-yl)-1-hydroxybut-3-yn-2-yl)-4-hydroxypyrrolidine-2-carboxamide] gave a DC50 of 10 to 100 nM. For the compound `CCn1nccc1-c1ccc([C@H](CO)NC(=O)[C@@H]2C[C@@H](O)CN2C(=O)[C@H](C(C)C)n2cc(-c3ccc(COc4c(-c5c(C)c(F)cc6[nH]ncc56)c(C5CC5)cc5c(N(C)C[C@@H]6CCNC6)nc(OC[C@H](C)OC)nc45)cc3)nn2)cc1` [Example 216, (2S,4R)-1-((2S)-2-(4-(4-(((6-cyclopropyl-7-(6-fluoro-5-methyl-1H-indazol-4-yl)-2-((S)-2-methoxypropoxy)-4-(methyl(((R)-pyrrolidin-3-yl)methyl)amino)quinazolin-8-yl)oxy)methyl)phenyl)-1H-1,2,3-triazol-1-yl)-3-methylbutanoyl)-N—((R)-1-(4-(1-ethyl-1H-pyrazol-5-yl)phenyl)-2-hydroxyethyl)-4-hydroxypyrrolidine-2-carboxamide], the DC50 was under 10 nM. The value for `CO[C@@H](C)COc1nc(N2C[C@H]3CN[C@H](C3)C2)c2cc(C3CC3)c(-c3c(C)c(F)cc4[nH]ncc34)c(OCc3ccc(-c4cn([C@H](C(=O)N5C[C@H](O)C[C@H]5C(=O)N[C@@H](CO)c5ccc(-c6scnc6C)cc5)C(C)C)nn4)cc3)c2n1` [Example 223, (2S,4R)-1-((2S)-2-(4-(4-(((4-((1R,5R)-3,6-diazabicyclo[3.2.1]octan-3-yl)-6-cyclopropyl-7-(6-fluoro-5-methyl-1H-indazol-4-yl)-2-((S)-2-methoxypropoxy)quinazolin-8-yl)oxy)methyl)phenyl)-1H-1,2,3-triazol-1-yl)-3-methylbutanoyl)-4-hydroxy-N—((R)-2-hydroxy-1-(4-(4-methylthiazol-5-yl)phenyl)ethyl)pyrrolidine-2-carboxamide] was 10 to 100 nM; that for `CO[C@@H](C)COc1nc(N2C[C@@H]3C[C@H]2CN3)c2cc(C3CC3)c(-c3c(C)c(F)cc4[nH]ncc34)c(OCc3ccc(-c4cn([C@H](C(=O)N5C[C@H](O)C[C@H]5C(=O)N[C@H](C#Cc5ccnc6nn(C)cc56)CO)C(C)C)nn4)cc3)c2n1` [Example 191, (2S,4R)-1-((2S)-2-(4-(4-(((4-((1S,4S)-2,5-diazabicyclo[2.2.1]heptan-2-yl)-6-cyclopropyl-7-(6-fluoro-5-methyl-1H-indazol-4-yl)-2-((S)-2-methoxypropoxy)quinazolin-8-yl)oxy)methyl)phenyl)-1H-1,2,3-triazol-1-yl)-3-methylbutanoyl)-4-hydroxy-N—((R)-1-hydroxy-4-(2-methyl-2H-pyrazolo[3,4-b]pyridin-4-yl)but-3-yn-2-yl)pyrrolidine-2-carboxamide] was 10 to 100 nM; that for `CO[C@@H](C)COc1nc(N2C[C@H]3C[C@@H]2CN3)c2cc(C3CC3)c(-c3c(C)c(F)cc4n[nH]cc34)c(OCc3ccc(-c4cn([C@H](C(=O)N5C[C@H](O)C[C@H]5C(=O)N[C@@H](CO)c5ccc(-c6c(C)noc6C)cc5)C(C)C)nn4)cc3)c2n1` (single isomer, unassigned) [Example 6B] was over 1000 nM. With `CCn1nccc1-c1ccc([C@H](CO)NC(=O)[C@@H]2C[C@@H](O)CN2C(=O)[C@H](C(C)C)n2cc(-c3ccc(COc4c(-c5c(C)c(F)cc6[nH]ncc56)c(C5CC5)cc5c(N6CCCC(C#N)CC6)nc(OC[C@H](C)OC)nc45)cc3)nn2)cc1` (stereo partly drawn) [Example 182, (2S,4R)-1-((2S)-2-(4-(4-(((4-(4-cyanoazepan-1-yl)-6-cyclopropyl-7-(6-fluoro-5-methyl-1H-indazol-4-yl)-2-((S)-2-methoxypropoxy)quinazolin-8-yl)oxy)methyl)phenyl)-1H-1,2,3-triazol-1-yl)-3-methylbutanoyl)-N—((R)-1-(4-(1-ethyl-1H-pyrazol-5-yl)phenyl)-2-hydroxyethyl)-4-hydroxypyrrolidine-2-carboxamide], the DC50 was 10 to 100 nM.

In turn, `CO[C@@H](C)COc1nc(N2C[C@@H]3C[C@H]2CN3)c2cc(C3CC3)c(-c3c(C)c(F)cc4[nH]ncc34)c(OCc3ccc(-c4cn([C@H](C(=O)N5C[C@H](O)C[C@H]5C(=O)N[C@H](C#Cc5cccc6c5ncn6C)CO)C(C)C)nn4)cc3)c2n1` [Example 140, (2S,4R)-1-((2S)-2-(4-(4-(((4-((1S,4S)-2,5-diazabicyclo[2.2.1]heptan-2-yl)-6-cyclopropyl-7-(6-fluoro-5-methyl-1H-indazol-4-yl)-2-((S)-2-methoxypropoxy)quinazolin-8-yl)oxy)methyl)phenyl)-1H-1,2,3-triazol-1-yl)-3-methylbutanoyl)-4-hydroxy-N—((R)-1-hydroxy-4-(1-methyl-1H-benzo[d]imidazol-4-yl)but-3-yn-2-yl)pyrrolidine-2-carboxamide] gave a 50% degradation concentration (DC50) of 10 to 100 nM. Regarding `CO[C@@H](C)COc1nc(N2CC3CCC(C2)N3)c2cc(C3CC3)c(-c3c(C)c(F)cc4[nH]ncc34)c(OCc3ccc(-c4cn([C@H](C(=O)N5C[C@H](O)C[C@H]5C(=O)N[C@@H](CO)c5ccc(-c6scnc6C)cc5)C(C)C)nn4)cc3)c2n1` (single isomer, unassigned) [Example 12B], the DC50 was over 1000 nM.
